Reference: PubChem BioAssay (NCI)
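48-hour exposure; five concentrations; linearly interpolated endpoints. TGI marks complete inhibition of growth.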

Tests used:
Assay in all cases: DTP human tumour cell line panel, 48 h
TK-10 renal = test system: TK-10 renal
UACC-62 melanoma = test system: UACC-62 melanoma
OVCAR-4 ovarian = test system: OVCAR-4 ovarian
OVCAR-3 ovarian = test system: OVCAR-3 ovarian
EKVX NSCLC = test system: EKVX NSCLC
NCI/ADR-RES ovarian = test system: NCI/ADR-RES ovarian
SW-620 colon = test system: SW-620 colon
COLO 205 colon = test system: COLO 205 colon
NCI-H23 lung = test system: NCI-H23 lung
K-562 leukemia = test system: K-562 leukemia
HT29 colon = test system: HT29 colon
OVCAR-8 ovarian = test system: OVCAR-8 ovarian
SK-MEL-5 melanoma = test system: SK-MEL-5 melanoma
HL-60(TB) leukemia = test system: HL-60(TB) leukemia
MOLT-4 leukemia = test system: MOLT-4 leukemia
SK-OV-3 ovarian = test system: SK-OV-3 ovarian
MDA-MB-435 = test system: MDA-MB-435
SK-MEL-2 melanoma = test system: SK-MEL-2 melanoma
HCT-116 colon = test system: HCT-116 colon
U251 CNS = test system: U251 CNS
CCRF-CEM leukemia = test system: CCRF-CEM leukemia
HOP-92 NSCLC = test system: HOP-92 NSCLC
UO-31 renal = test system: UO-31 renal
DU-145 prostate = test system: DU-145 prostate
ACHN renal = test system: ACHN renal
HCT-15 colon = test system: HCT-15 colon
MDA-N = test system: MDA-N
BT-549 breast = test system: BT-549 breast
SNB-19 CNS = test system: SNB-19 CNS
SNB-75 CNS = test system: SNB-75 CNS
SF-295 CNS = test system: SF-295 CNS
A498 renal = test system: A498 renal
T-47D breast = test system: T-47D breast
MCF7 breast = test system: MCF7 breast
CAKI-1 renal = test system: CAKI-1 renal
OVCAR-5 ovarian = test system: OVCAR-5 ovarian
NCI-H460 lung = test system: NCI-H460 lung
786-0 renal = test system: 786-0 renal
A549 NSCLC = test system: A549 NSCLC
SF-539 CNS = test system: SF-539 CNS
SN12C renal = test system: SN12C renal
IGROV1 ovarian = test system: IGROV1 ovarian
LOX IMVI melanoma = test system: LOX IMVI melanoma
RXF 393 renal = test system: RXF 393 renal
UACC-257 melanoma = test system: UACC-257 melanoma
SR leukemia = test system: SR leukemia
RPMI-8226 leukemia = test system: RPMI-8226 leukemia
PC-3 prostate = test system: PC-3 prostate
NCI-H522 lung = test system: NCI-H522 lung
KM12 colon = test system: KM12 colon
HS 578T breast = test system: HS 578T breast
SF-268 CNS = test system: SF-268 CNS
NCI-H226 lung = test system: NCI-H226 lung
MDA-MB-231 breast = test system: MDA-MB-231 breast
M14 melanoma = test system: M14 melanoma
HOP-62 NSCLC = test system: HOP-62 NSCLC
SK-MEL-28 melanoma = test system: SK-MEL-28 melanoma
MALME-3M melanoma = test system: MALME-3M melanoma
HCC-2998 colon = test system: HCC-2998 colon

`Cn1c(-c2ccc(/C=N\N3CCN(/N=C/c4ccc(-c5c[n+]6ccsc6n5C)cc4)CC3)cc2)c[n+]2ccsc12` was tested, and the TGI (TK-10 renal) was > 100 µM, the TGI (UACC-62 melanoma) was 95.7 µM and the TGI (OVCAR-4 ovarian) was > 100 µM. For the same compound, the TGI (OVCAR-3 ovarian) was > 100 µM, the TGI (EKVX NSCLC) was > 100 µM and the TGI (NCI/ADR-RES ovarian) was > 100 µM. For the same compound, the TGI (SW-620 colon) was > 100 µM, the TGI (COLO 205 colon) was 36.3 µM and the TGI (NCI-H23 lung) was > 100 µM. The TGI (K-562 leukemia) was 34.7 µM, the TGI (HT29 colon) was > 100 µM and the TGI (OVCAR-8 ovarian) was > 100 µM. For the same compound, the TGI (SK-MEL-5 melanoma) was 84.6 µM, the TGI (HL-60(TB) leukemia) was 48.3 µM and the TGI (MOLT-4 leukemia) was > 100 µM. For the same compound, the TGI (SK-OV-3 ovarian) was > 100 µM, the TGI (MDA-MB-435) was > 100 µM and the TGI (SK-MEL-2 melanoma) was > 100 µM. The TGI (HCT-116 colon) was > 100 µM, the TGI (U251 CNS) was > 100 µM and the TGI (CCRF-CEM leukemia) was > 100 µM. The TGI (HOP-92 NSCLC) was > 100 µM, the TGI (UO-31 renal) was > 100 µM and the TGI (DU-145 prostate) was > 100 µM. The TGI (ACHN renal) was > 100 µM, the TGI (HCT-15 colon) was > 100 µM and the TGI (MDA-N) was > 100 µM. For the same compound, the TGI (BT-549 breast) was 90.3 µM, the TGI (SNB-19 CNS) was > 100 µM and the TGI (SNB-75 CNS) was 93.1 µM. The TGI (SF-295 CNS) was > 100 µM, the TGI (A498 renal) was 82.3 µM and the TGI (T-47D breast) was 53.8 µM. For the same compound, the TGI (MCF7 breast) was > 100 µM, the TGI (CAKI-1 renal) was > 100 µM and the TGI (OVCAR-5 ovarian) was > 100 µM. The TGI (NCI-H460 lung) was > 100 µM, the TGI (786-0 renal) was > 100 µM and the TGI (A549 NSCLC) was > 100 µM. The TGI (SF-539 CNS) was > 100 µM, the TGI (SN12C renal) was > 100 µM and the TGI (IGROV1 ovarian) was > 100 µM. The TGI (LOX IMVI melanoma) was > 100 µM, the TGI (RXF 393 renal) was > 100 µM and the TGI (UACC-257 melanoma) was 67.9 µM. For the same compound, the TGI (SR leukemia) was > 100 µM, the TGI (RPMI-8226 leukemia) was 89.4 µM and the TGI (PC-3 prostate) was > 100 µM. The TGI (NCI-H522 lung) was > 100 µM, the TGI (KM12 colon) was > 100 µM and the TGI (HS 578T breast) was 80.8 µM. For the same compound, the TGI (SF-268 CNS) was > 100 µM, the TGI (NCI-H226 lung) was > 100 µM and the TGI (MDA-MB-231 breast) was 78.5 µM. The TGI (M14 melanoma) was > 100 µM.

In the case of `CNC(=O)CCCN(C)C(=O)CCCCC(=O)N(C)C`, the TGI (HOP-62 NSCLC) is reported as > 100 µM, the TGI (TK-10 renal) is reported as > 100 µM and the TGI (UACC-62 melanoma) is reported as > 100 µM. For the same compound, the TGI (OVCAR-4 ovarian) was > 100 µM, the TGI (OVCAR-3 ovarian) was > 100 µM and the TGI (EKVX NSCLC) was > 100 µM. For the same compound, the TGI (NCI/ADR-RES ovarian) was > 100 µM, the TGI (SW-620 colon) was > 100 µM and the TGI (COLO 205 colon) was > 100 µM. For the same compound, the TGI (NCI-H23 lung) was > 100 µM, the TGI (K-562 leukemia) was > 100 µM and the TGI (HT29 colon) was > 100 µM. The TGI (OVCAR-8 ovarian) was > 100 µM, the TGI (SK-MEL-5 melanoma) was > 100 µM and the TGI (HL-60(TB) leukemia) was > 100 µM. The TGI (SK-MEL-28 melanoma) was > 100 µM, the TGI (MOLT-4 leukemia) was > 100 µM and the TGI (SK-OV-3 ovarian) was > 100 µM. The TGI (MDA-MB-435) was > 100 µM, the TGI (SK-MEL-2 melanoma) was > 100 µM and the TGI (HCT-116 colon) was > 100 µM. For the same compound, the TGI (U251 CNS) was > 100 µM, the TGI (CCRF-CEM leukemia) was > 100 µM and the TGI (HOP-92 NSCLC) was > 100 µM. The TGI (UO-31 renal) was > 100 µM, the TGI (DU-145 prostate) was > 100 µM and the TGI (ACHN renal) was > 100 µM. For the same compound, the TGI (HCT-15 colon) was > 100 µM, the TGI (MDA-N) was > 100 µM and the TGI (BT-549 breast) was > 100 µM. The TGI (SNB-19 CNS) was > 100 µM, the TGI (SNB-75 CNS) was > 100 µM and the TGI (SF-295 CNS) was > 100 µM. For the same compound, the TGI (A498 renal) was > 100 µM, the TGI (T-47D breast) was > 100 µM and the TGI (MCF7 breast) was > 100 µM. For the same compound, the TGI (CAKI-1 renal) was > 100 µM, the TGI (OVCAR-5 ovarian) was > 100 µM and the TGI (NCI-H460 lung) was > 100 µM. For the same compound, the TGI (786-0 renal) was > 100 µM, the TGI (A549 NSCLC) was > 100 µM and the TGI (SF-539 CNS) was > 100 µM. For the same compound, the TGI (SN12C renal) was > 100 µM, the TGI (MALME-3M melanoma) was > 100 µM and the TGI (IGROV1 ovarian) was > 100 µM. The TGI (LOX IMVI melanoma) was > 100 µM, the TGI (RXF 393 renal) was > 100 µM and the TGI (UACC-257 melanoma) was > 100 µM. For the same compound, the TGI (RPMI-8226 leukemia) was > 100 µM, the TGI (PC-3 prostate) was > 100 µM and the TGI (NCI-H522 lung) was > 100 µM. The TGI (KM12 colon) was > 100 µM, the TGI (HS 578T breast) was > 100 µM and the TGI (SF-268 CNS) was > 100 µM. The TGI (NCI-H226 lung) was > 100 µM, the TGI (MDA-MB-231 breast) was > 100 µM and the TGI (M14 melanoma) was > 100 µM. For the same compound, the TGI (HCC-2998 colon) was > 100 µM.

In the case of `COc1ccc2[nH]c3c(c2c1)COc1ccccc1C3=O`, the TGI (HOP-62 NSCLC) is reported as > 100 µM, the TGI (TK-10 renal) is reported as > 100 µM and the TGI (UACC-62 melanoma) is reported as > 100 µM. The TGI (OVCAR-4 ovarian) was > 100 µM, the TGI (OVCAR-3 ovarian) was > 100 µM and the TGI (EKVX NSCLC) was > 100 µM. For the same compound, the TGI (NCI/ADR-RES ovarian) was > 100 µM, the TGI (SW-620 colon) was > 100 µM and the TGI (COLO 205 colon) was > 100 µM. The TGI (NCI-H23 lung) was > 100 µM, the TGI (K-562 leukemia) was > 100 µM and the TGI (HT29 colon) was > 100 µM. The TGI (OVCAR-8 ovarian) was > 100 µM, the TGI (SK-MEL-5 melanoma) was > 100 µM and the TGI (HL-60(TB) leukemia) was > 100 µM. The TGI (SK-MEL-28 melanoma) was > 100 µM, the TGI (MOLT-4 leukemia) was > 100 µM and the TGI (SK-OV-3 ovarian) was > 100 µM. The TGI (MDA-MB-435) was > 100 µM, the TGI (SK-MEL-2 melanoma) was > 100 µM and the TGI (HCT-116 colon) was > 100 µM. For the same compound, the TGI (U251 CNS) was > 100 µM, the TGI (CCRF-CEM leukemia) was > 100 µM and the TGI (HOP-92 NSCLC) was > 100 µM. The TGI (UO-31 renal) was > 100 µM, the TGI (DU-145 prostate) was > 100 µM and the TGI (ACHN renal) was > 100 µM. For the same compound, the TGI (HCT-15 colon) was > 100 µM, the TGI (MDA-N) was > 100 µM and the TGI (BT-549 breast) was > 100 µM. For the same compound, the TGI (SNB-19 CNS) was > 100 µM, the TGI (SNB-75 CNS) was > 100 µM and the TGI (SF-295 CNS) was > 100 µM. The TGI (A498 renal) was > 100 µM, the TGI (T-47D breast) was > 100 µM and the TGI (MCF7 breast) was > 100 µM. For the same compound, the TGI (CAKI-1 renal) was > 100 µM, the TGI (OVCAR-5 ovarian) was > 100 µM and the TGI (NCI-H460 lung) was > 100 µM. The TGI (786-0 renal) was > 100 µM, the TGI (A549 NSCLC) was > 100 µM and the TGI (SF-539 CNS) was > 100 µM. The TGI (SN12C renal) was > 100 µM, the TGI (MALME-3M melanoma) was > 100 µM and the TGI (IGROV1 ovarian) was > 100 µM. For the same compound, the TGI (LOX IMVI melanoma) was > 100 µM, the TGI (UACC-257 melanoma) was > 100 µM and the TGI (SR leukemia) was > 100 µM. For the same compound, the TGI (RPMI-8226 leukemia) was > 100 µM, the TGI (PC-3 prostate) was > 100 µM and the TGI (NCI-H522 lung) was > 100 µM. For the same compound, the TGI (KM12 colon) was > 100 µM, the TGI (HS 578T breast) was > 100 µM and the TGI (SF-268 CNS) was > 100 µM. The TGI (NCI-H226 lung) was > 100 µM, the TGI (MDA-MB-231 breast) was > 100 µM and the TGI (M14 melanoma) was > 100 µM. The TGI (HCC-2998 colon) was > 100 µM.
